# Test results published in US12440584B2, “Macrocyclic ligands with pendant chelating moieties and complexes thereof” (LUMIPHORE, INC., priority 2018, dated 2025).
# Assays:
# Format in all cases: physicochemical
# [1] = Photophysical characterization of Eu complexes (UV-vis, luminescence, quantum yield, lifetime); details: TBS buffer, pH 7.6
# Procedure: The europium complexes of ligands 16, 29, 33, 40, and 43 were prepared by separately dissolving each ligand (2 mg) into methanol (200 μL). Excess europium chloride hexahydrate (˜5 equivalents) was dissolved in methanol (200 μL) and the full volume was added to each of the ligand solutions. The solvent was removed, and the residue was dissolved into DMF (50 μL). The europium complexes were then purified by semi-prep HPLC on an Agilent 1260 Infinity instrument using an Eclipse XDB-C18 column (5 μm, 9.4×250 mm). The mobile phase was 10 to 30% acetonitrile in water containing 0.1% trifluoroacetic acid. The volatiles were removed from the HPLC eluents under vacuum, and the residues were separately dissolved into methanol (500 μL) to give methanolic stock solutions of each europium complex with greater than 98% purity. A few drops of these methanolic solutions were evaporated to dryness, and then the residue was dissolved into TBS buffer at a concentration of ca. 3 μM to make aqueous stock solutions (20 mL) with an absorbance of 0.05 (1 cm path length) at 365 nm. […] Quinine sulfate dissolved in 0.05 M sulfuric acid was similarly diluted to a final absorbance of 0.05 at 365 nm, and this solution was similarly (1/6, 2/6, 3/6, 4/6, and 5/6) diluted to afford six quinine sulfate reference samples of evenly spaced concentration. […] By measuring the absorbance and luminescence of these dilute solutions, the quantum yields of the new Eu complexes were determined. A 5 cm path-length quartz cell was used to measure the absorbance of these dilute solutions in order to improve the UV-vis signal-to-noise. Steady state photoluminescence measurements were collected in a 1 cm fluorescence cuvette at 365 nm excitation wavelength, 1 nm resolution, 10 nm excitation slit width, 1 nm emission slit width, and 0.2 sec integration time on an instrument that has been described elsewhere (D'Aleo, A.; Moore, E. G.; Szigethy, G.; Xu, J.; Raymond, K. N. Inorg. Chem. 2009, 48, 9316·). […]
# [2] = Luminescence titration of ligand 43 with europium chloride; details: 383 nm (ligand), 357 nm (complex)
# Procedure: Titration of ligand 43 was also performed by luminescence (FIG. 5), monitoring the europium signal at 612 nm upon photoexcitation of the solution at 340 nm. The ligand solution used for the UV-vis titration of 43 mentioned above was first diluted 1:10 in TBS buffer. Similarly, the 1.299 mM stock europium solution was separately diluted 1:10 with water. […] The 32.99 μL equivalence point gives extinction coefficients of 14,400 M^−1 cm^−1 at 383 nm and 14,200 M^−1 cm^−1 at 357 nm for 43 and 43 Eu respectively. Averaging the values from both UV-vis and luminescence titration experiments of 43 yields extinction coefficients of 13,700 M^−1 cm^−1 at 383 nm and 13,500 M^−1 cm^−1 at 357 nm for 43 and 43 Eu respectively.
# [3] = UV-vis titration with europium chloride for extinction coefficients
# Procedure: In order to determine accurate extinction coefficients for 16 and 16·Eu, titration experiments using europium chloride as the titrant were performed. Europium chloride hexahydrate (13.22 mg, 0.03608 mmol) was dissolved into 5 mM citrate buffer (pH=4) using a 100 mL volumetric flask to give a 0.3608 mM europium chloride solution, which was then titrated into a 0.5 mL solution of 16 in TBS buffer (Tris-buffered saline, 50 mM Tris, 150 mM NaCl, pH=7.6) using 5 μL aliquots. The UV-vis spectra were adjusted for the increase in solvent volume due to each injection. The results of the UV-vis titration are plotted in FIG. 3.
# The volume of europium chloride corresponds to 16.70 nmol of europium, meaning the starting concentration of ligand 16 was 33.40 μM. […] These absorbance and concentration values yield extinction coefficients of 13,600 M^−1 cm^−1 and 14,300 M^−1 cm^−1 for the ligand 16 and the complex 16·Eu respectively.
# In order to determine accurate extinction coefficients for 43 and 43 Eu, titration experiments using europium chloride as the titrant were performed. Europium chloride hexahydrate (47.58 mg, 0.1299 mmol) was dissolved into 50 mM citrate buffer (pH=4) using a 10 mL volumetric flask to give a 12.99 mM europium chloride solution, which was then transferred to a 100 mL volumetric flask and diluted 1:10 with water. The resulting 1.299 mM europium chloride solution (in 5 mM citrate buffer) was then titrated into a 1 mL solution of 43 in TBS buffer using 5 μL aliquots. The UV-vis spectra were adjusted for the increase in solvent volume due to each injection. The results of the UV-vis titration are plotted in FIG. 4.
# The volume of europium chloride corresponds to 47.46 nmol of europium, meaning the starting concentration of ligand 43 was 47.46 μM. […] These absorbance and concentration values yield extinction coefficients of 13,000 M^−1 cm^−1 and 12,800 M^−1 cm^−1 for the ligand and complex respectively.
smiles,measurement,setting,value
NCCOCCNC(=O)C1CCCN(C(=O)c2cccc(=O)n2O)CCCNC(=O)c2ccc(n(O)c2=O)C(=O)N[C@@H]2COC[C@@H]2NC(=O)c2ccc(c(=O)n2O)C(=O)NCCCN1C(=O)c1cccc(=O)n1O (some centres unmarked) [Compound 43],ε260/ε at λmax,[1],1.96
same,ε280/ε at λmax,[1],1.27
same,λmax,[1],383 nm
same,"extinction coefficient, average of UV-vis and luminescence titrations",[2],"13,700 M^−1 cm^−1"
same,extinction coefficient,[2]; luminescence titration,"14,400 M^−1 cm^−1"
same,lambda max,"[3]; UV-vis titration, TBS buffer",383 nm
same,extinction coefficient,"[3]; UV-vis titration, at lambda max","13,000 M^−1 cm^−1"
same,ε at λmax,"[3]; measured by europium titration, TBS buffer","13,700 M^−1cm^−1"
